pIC50: −log10 of the molar value.
What was measured:
[1] = target: human EGFR (native sequence) (Homo sapiens, UniProt P00533); experiment: Kinase inhibitory activity against human EGFR (native sequence); type: biochemical; conditions: 10 pt curves, 3 μM top concentration, 10 μM ATP; read-out: IC50 for kinase inhibition, EGFR
In short: (§1)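 Kinase inhibition was measured against native human EGFR and the L858R and L858R/T790M mutants. Compounds were run as 10-point curves in singlicate from a 3 μM top concentration, with 10 μM ATP.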

[2] = target: EGFR L858R (Homo sapiens, UniProt P00533, L858R); experiment: Kinase inhibitory activity against EGFR bearing the L858R mutation; type: biochemical; conditions: 10 pt curves, 3 μM top concentration, 10 μM ATP; read-out: IC50 for kinase inhibition, EGFR L858R
In short: as §1

[3] = target: EGFR L858R/T790M (Homo sapiens, UniProt P00533, L858R/T790M); experiment: Kinase inhibitory activity against EGFR bearing the L858R/T790M double mutation; type: biochemical; conditions: 10 pt curves, 3 μM top concentration, 10 μM ATP; read-out: IC50 for kinase inhibition, EGFR L858R T790M
In short: as §1

[4] = target: T1, BaF3 cells expressing the target EGFR mutations (Homo sapiens, UniProt P00533, T790M, cells depend on it, form not given); experiment: Antiproliferative activity (MTT) against BaF3 cells expressing the target EGFR mutations; type: cell-based; conditions: BAF3 EGFR DEL T790M PURO POOL cells, read-out: IC50, BAF3 EGFR DEL T790M PURO POOL
T1 construct: IC50, BAF3 EGFR DEL T790M PURO POOL; other: BAF3 EGFR DEL T790M PURO POOL cells, MTT; other: BAF3 EGFR DEL T790M PURO POOL cells; MTT
In short: (§2)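 Antiproliferative effect was measured by MTT in BaF3 cells engineered to express mutant EGFR, with wildtype-EGFR BaF3 cells as the control line.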

[5] = target: T2, BaF3 cells expressing the target EGFR mutations (Homo sapiens, UniProt P00533, T790M/L858R, cells depend on it); experiment: as above; type: cell-based; conditions: BAF3 EGFR L858R-T790M PURO POOL cells, read-out: IC50, BAF3 EGFR L858R-T790M PURO POOL
T2 construct: IC50, BAF3 EGFR L858R-T790M PURO POOL; other: BAF3 EGFR L858R-T790M PURO POOL cells, MTT; IC50, BAF3 EGFR L858R-T790M PURO POOL; other: BAF3 EGFR L858R-T790M PURO POOL cells; MTT
In short: as §2

[6] = test system: BaF3 cells expressing wildtype EGFR; experiment: Antiproliferative activity (MTT) against control BaF3 cells expressing wildtype EGFR; type: cell-based; conditions: Mus musculus, BAF3 parental cells
In short: as §2

T2 sequence (P00533 whole entry T790M/L858R): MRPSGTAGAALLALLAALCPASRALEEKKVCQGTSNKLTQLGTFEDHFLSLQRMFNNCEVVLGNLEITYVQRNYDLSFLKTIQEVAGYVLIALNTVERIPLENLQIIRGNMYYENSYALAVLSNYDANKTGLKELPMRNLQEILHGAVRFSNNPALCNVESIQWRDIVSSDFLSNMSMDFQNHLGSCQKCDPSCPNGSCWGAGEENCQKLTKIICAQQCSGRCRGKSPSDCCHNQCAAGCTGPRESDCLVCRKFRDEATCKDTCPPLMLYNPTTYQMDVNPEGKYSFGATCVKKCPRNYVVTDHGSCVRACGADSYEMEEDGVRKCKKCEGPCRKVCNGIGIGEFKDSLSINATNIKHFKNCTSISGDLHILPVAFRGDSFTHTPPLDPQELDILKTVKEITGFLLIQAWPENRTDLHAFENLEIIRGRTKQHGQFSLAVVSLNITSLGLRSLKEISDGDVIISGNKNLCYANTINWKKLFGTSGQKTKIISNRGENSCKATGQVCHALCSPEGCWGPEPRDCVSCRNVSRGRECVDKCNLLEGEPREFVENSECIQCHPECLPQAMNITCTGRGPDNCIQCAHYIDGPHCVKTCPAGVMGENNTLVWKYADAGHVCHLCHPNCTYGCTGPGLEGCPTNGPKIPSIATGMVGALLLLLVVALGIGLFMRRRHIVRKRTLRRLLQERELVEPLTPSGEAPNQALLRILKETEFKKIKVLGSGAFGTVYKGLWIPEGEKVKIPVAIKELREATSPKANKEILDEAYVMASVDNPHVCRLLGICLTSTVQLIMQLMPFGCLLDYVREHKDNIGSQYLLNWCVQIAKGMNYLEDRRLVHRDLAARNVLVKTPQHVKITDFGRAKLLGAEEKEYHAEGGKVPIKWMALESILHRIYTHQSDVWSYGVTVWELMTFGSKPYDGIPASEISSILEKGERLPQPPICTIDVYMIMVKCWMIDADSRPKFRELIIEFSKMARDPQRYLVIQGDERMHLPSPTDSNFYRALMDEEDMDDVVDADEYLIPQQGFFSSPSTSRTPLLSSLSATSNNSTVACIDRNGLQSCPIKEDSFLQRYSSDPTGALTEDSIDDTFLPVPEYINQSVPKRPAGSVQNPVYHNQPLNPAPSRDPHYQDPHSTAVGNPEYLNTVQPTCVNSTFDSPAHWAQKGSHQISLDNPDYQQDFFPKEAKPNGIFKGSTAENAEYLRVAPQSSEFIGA
Chain of human EGFR (native sequence) (P00533 25-1210): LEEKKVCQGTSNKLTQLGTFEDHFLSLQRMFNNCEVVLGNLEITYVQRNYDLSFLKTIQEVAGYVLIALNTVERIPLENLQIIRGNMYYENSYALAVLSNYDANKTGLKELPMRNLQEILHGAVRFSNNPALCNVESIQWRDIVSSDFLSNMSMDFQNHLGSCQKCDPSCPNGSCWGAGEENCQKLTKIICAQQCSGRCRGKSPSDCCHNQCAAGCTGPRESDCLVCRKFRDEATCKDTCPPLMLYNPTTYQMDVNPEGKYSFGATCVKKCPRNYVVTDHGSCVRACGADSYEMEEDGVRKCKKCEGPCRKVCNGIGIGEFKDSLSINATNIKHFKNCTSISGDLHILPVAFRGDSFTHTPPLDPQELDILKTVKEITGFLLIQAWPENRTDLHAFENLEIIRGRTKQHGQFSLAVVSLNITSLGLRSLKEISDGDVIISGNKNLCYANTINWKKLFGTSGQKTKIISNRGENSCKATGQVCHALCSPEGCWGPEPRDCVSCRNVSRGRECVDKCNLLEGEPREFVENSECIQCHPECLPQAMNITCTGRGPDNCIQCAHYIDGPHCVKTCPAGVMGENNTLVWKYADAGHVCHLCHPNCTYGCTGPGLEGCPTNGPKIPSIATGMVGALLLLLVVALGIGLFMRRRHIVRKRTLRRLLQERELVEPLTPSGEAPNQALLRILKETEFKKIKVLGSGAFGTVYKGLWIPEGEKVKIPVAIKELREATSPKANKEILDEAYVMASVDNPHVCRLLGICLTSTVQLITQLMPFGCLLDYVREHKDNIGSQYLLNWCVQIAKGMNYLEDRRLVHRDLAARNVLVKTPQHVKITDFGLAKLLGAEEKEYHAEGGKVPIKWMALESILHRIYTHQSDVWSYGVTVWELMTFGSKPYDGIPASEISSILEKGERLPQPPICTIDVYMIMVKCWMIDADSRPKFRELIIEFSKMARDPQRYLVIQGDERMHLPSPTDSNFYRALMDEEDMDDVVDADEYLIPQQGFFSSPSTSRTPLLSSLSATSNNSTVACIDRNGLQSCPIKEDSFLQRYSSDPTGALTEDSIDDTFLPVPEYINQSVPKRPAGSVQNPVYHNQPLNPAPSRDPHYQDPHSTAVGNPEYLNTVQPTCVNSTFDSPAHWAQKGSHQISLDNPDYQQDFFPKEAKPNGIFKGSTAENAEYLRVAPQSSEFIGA
T1 sequence (P00533 with tags, fused parts or gaps DEL746-750/T790M, form open): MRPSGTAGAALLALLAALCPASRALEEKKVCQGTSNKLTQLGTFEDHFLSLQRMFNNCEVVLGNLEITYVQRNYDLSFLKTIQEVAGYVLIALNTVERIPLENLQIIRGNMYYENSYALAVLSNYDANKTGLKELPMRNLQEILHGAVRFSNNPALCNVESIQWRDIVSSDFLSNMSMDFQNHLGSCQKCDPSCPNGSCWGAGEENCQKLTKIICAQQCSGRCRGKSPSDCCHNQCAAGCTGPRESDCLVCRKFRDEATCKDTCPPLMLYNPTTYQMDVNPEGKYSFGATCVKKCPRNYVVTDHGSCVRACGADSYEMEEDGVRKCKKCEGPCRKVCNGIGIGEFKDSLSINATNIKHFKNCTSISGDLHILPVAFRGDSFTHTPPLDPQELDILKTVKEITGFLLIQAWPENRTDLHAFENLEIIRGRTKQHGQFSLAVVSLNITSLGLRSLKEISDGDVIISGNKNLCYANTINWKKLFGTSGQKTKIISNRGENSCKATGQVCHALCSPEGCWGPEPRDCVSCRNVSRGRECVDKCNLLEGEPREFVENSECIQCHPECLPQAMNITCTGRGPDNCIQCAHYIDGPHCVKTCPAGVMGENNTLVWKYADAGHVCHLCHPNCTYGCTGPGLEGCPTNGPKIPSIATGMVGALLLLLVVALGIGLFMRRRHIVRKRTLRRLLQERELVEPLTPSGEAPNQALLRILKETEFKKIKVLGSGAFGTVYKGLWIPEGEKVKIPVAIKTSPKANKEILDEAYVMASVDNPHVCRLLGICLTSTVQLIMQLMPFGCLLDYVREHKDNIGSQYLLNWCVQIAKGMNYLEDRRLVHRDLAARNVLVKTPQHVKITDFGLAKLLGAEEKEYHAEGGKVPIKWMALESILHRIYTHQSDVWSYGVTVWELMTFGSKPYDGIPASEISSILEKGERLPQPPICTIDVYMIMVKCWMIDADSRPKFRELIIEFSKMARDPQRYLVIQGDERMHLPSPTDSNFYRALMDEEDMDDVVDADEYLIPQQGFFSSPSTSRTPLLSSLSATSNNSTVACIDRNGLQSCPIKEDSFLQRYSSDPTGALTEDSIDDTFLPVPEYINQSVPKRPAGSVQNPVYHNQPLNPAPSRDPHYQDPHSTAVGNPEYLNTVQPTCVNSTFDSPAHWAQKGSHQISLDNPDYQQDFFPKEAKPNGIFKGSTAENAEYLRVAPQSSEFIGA
Chain of EGFR L858R/T790M (P00533 25-1210 T790M/L858R): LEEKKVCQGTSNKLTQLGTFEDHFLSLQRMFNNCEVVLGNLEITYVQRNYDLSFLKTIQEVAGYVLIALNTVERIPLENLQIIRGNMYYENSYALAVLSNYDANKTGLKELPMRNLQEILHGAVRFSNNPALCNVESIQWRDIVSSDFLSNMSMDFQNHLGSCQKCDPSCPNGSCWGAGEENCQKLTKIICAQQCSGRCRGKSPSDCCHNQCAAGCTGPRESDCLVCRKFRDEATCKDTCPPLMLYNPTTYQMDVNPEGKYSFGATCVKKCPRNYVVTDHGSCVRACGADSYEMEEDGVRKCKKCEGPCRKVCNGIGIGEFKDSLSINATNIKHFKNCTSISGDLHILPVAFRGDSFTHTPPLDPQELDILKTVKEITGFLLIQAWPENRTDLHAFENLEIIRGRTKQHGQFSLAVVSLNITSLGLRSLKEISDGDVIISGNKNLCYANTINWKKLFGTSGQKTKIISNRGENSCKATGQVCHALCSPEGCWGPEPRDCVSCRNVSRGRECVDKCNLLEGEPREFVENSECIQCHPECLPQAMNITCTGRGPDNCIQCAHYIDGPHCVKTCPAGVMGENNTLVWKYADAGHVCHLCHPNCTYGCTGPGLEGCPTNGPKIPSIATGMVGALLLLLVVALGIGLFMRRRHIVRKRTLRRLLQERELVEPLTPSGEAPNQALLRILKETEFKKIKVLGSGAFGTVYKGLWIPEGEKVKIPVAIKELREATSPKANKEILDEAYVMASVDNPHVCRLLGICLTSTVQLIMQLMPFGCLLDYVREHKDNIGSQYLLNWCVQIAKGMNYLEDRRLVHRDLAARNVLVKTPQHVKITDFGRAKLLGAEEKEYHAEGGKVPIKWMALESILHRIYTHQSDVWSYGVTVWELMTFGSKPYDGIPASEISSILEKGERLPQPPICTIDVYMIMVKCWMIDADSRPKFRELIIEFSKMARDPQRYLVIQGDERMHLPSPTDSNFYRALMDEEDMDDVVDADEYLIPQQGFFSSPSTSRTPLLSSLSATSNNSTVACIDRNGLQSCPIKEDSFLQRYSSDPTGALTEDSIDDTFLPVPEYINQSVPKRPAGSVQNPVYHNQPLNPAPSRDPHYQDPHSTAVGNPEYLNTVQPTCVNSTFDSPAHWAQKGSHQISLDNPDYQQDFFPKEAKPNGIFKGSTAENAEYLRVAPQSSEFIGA

SMILES	pIC50 [1]	pIC50 [2]	pIC50 [3]	GI50 [4] [nM]	GI50 [5] [nM]	pIC50 [6]
C=CC(=O)Nc1cc(Nc2ncc(Cl)c(Nc3ccccc3P(C)(C)=O)n2)c(OC)cc1C#CCN(C)C(C)C [Example 166, N-(5-((5-chloro-4-((2-(dimethylphosphoryl)phenyl)amino)pyrimidin-2-yl)amino)-2-(3-(isopropyl(methyl)amino)prop-1-yn-1-yl)-4-methoxyphenyl)acrylamide]	> 7.30	> 7.30	> 7.30	< 50	< 50	≤ 6.60
C=CC(=O)Nc1cc(Nc2ncc(Cl)c(Nc3ccccc3P(C)(C)=O)n2)c(OC)cc1C#CCN1CCCCC1 [Example 167, N-(5-((5-chloro-4-((2-(dimethylphosphoryl)phenyl)amino)pyrimidin-2-yl)amino)-4-methoxy-2-(3-(piperidin-1-yl)prop-1-yn-1-yl)phenyl)acrylamide]	> 7.30	> 7.30	> 7.30	< 50	< 50	> 7.30
C=CC(=O)Nc1cc(Nc2ncc(Cl)c(Nc3ccccc3P(C)(C)=O)n2)c(OC)cc1C#CCN(C)C1CCCC1 [Example 168, N-(5-((5-chloro-4-((2-(dimethylphosphoryl)phenyl)amino)pyrimidin-2-yl)amino)-2-(3-(cyclopentyl(methyl)amino)prop-1-yn-1-yl)-4-methoxyphenyl)acrylamide]	> 7.30	> 7.30	> 7.30	< 50	< 50	> 7.30
